This passage reports IC50 results from patent US20150252047A1, “SUBSTITUTED INDAZOL-PYRROLOPYRIMIDINES USEFUL IN THE TREATMENT OF HYPERPROLIFERATIVE DISEASES” (BAYER PHARMA AKTIENGESELLSCHAFT, priority 2012, published 2015).

As usually defined, the IC50 is the midpoint of a concentration-inhibition curve. Read a low IC50 as inhibition by little substance.

The target in the assay is T1, human full-length MKNK1 (Homo sapiens, UniProt Q9BUB5, T385D).
T1 construct: GST (N); purchased Carna Biosciences 02-145; host or cells: insect cells (baculovirus expression system)
T1 sequence (Q9BUB5 1-424 isoform Q9BUB5-2 T344D): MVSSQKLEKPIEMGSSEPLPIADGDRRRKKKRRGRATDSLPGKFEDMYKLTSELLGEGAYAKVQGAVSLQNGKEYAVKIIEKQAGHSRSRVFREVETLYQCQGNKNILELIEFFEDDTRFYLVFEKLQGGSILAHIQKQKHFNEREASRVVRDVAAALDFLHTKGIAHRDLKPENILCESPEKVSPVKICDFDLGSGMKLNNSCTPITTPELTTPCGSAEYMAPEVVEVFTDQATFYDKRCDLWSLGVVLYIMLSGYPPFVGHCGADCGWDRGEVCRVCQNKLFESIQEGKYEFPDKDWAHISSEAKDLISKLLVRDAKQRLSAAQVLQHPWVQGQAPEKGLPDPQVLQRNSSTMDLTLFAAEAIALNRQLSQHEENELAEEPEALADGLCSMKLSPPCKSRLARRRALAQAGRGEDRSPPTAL
The assay can be described thus: MKNK1 kinase high ATP assay (TR-FRET). The conditions noted are these: high ATP (2 mM final), 15 min preincubation with enzyme, 30 min reaction at 22° C. The assay is classed as biochemical. The method, then: MKNK1-inhibitory activity at high ATP of compounds of the present invention after their preincubation with MKNK1 was quantified employing the TR-FRET-based MKNK1 high ATP assay as described in the following paragraphs.
A recombinant fusion protein of Glutathione-S-Transferase (GST, N-terminally) and human full-length MKNK1 (amino acids 1-424 and T344D of accession number BAA 19885.1), expressed in insect cells using baculovirus expression system and purified via glutathione sepharose affinity chromatography, was purchased from Carna Biosciences (product no 02-145) and used as enzyme. As substrate for the kinase reaction the biotinylated peptide biotin-Ahx-IKKRKLTRRKSLKG (C-terminus in amide form) was used, which can be purchased e.g. from the company Biosyntan (Berlin-Buch, Germany).
For the assay 50 nL of a 100 fold concentrated solution of the test compound in DMSO was pipetted into a black low volume 384 well microtiter plate (Greiner Bio-One, Frickenhausen, Germany), 2 μL of a solution of MKNK1 in aqueous assay buffer [50 mM HEPES pH 7.5, 5 mM MgCl2, 1.0 mM dithiothreitol, 0.005% (v/v) Nonidet-P40 (Sigma)] was added and the mixture was incubated for 15 min at 22° C. to allow pre-binding of the test compounds to the enzyme before the start of the kinase reaction. Then the kinase reaction was started by the addition of 3 μL of a solution of adenosine-tri-phosphate (ATP, 3.3 mM=>final conc. in the 5 μL assay volume is 2 mM) and substrate (0.1 μM=>final conc. in the 5 μL assay volume is 0.06 μM) in assay buffer and the resulting mixture was incubated for a reaction time of 30 min at 22° C. The concentration of MKNK1 was adjusted depending of the activity of the enzyme lot and was chosen appropriate to have the assay in the linear range, typical concentrations were in the range of 0.003 μg/mL. The reaction was stopped by the addition of 5 μL of a solution of TR-FRET detection reagents (5 nM streptavidine-XL665 [Cisbio Bioassays, Codolet, France] and 1 nM anti-ribosomal protein S6 (pSer236)-antibody from Invitrogen [#44921G] and 1 nM LANCE EU-W1024 Labeled ProteinG [Perkin-Elmer, product no. AD0071]) in an aqueous EDTA-solution (100 mM EDTA, 0.1% (w/v) bovine serum albumin in 50 mM HEPES pH 7.5).
The resulting mixture was incubated for 1 h at 22° C. to allow the formation of complex between the phosphorylated biotinylated peptide and the detection reagents. Subsequently the amount of phosphorylated substrate was evaluated by measurement of the resonance energy transfer from the Eu-chelate to the streptavidine-XL. Therefore, the fluorescence emissions at 620 nm and 665 nm after excitation at 350 nm were measured in a TR-FRET reader, e.g. a Rubystar (BMG Labtechnologies, Offenburg, Germany) or a Viewlux (Perkin-Elmer). The ratio of the emissions at 665 nm and at […] was taken as the measure for the amount of phosphorylated substrate. The data were normalised (enzyme reaction without inhibitor=0% inhibition, all other assay components but no enzyme=100% inhibition).
On the technique in general: TR-FRET usually uses a lanthanide donor and a delayed reading to cut background.
`COc1cc2[nH]ncc2cc1Nc1ncnc2[nH]c(C(=O)N3CCC3)c(Br)c12` [Example 66, Azetidin-1-yl{5-bromo-4-[(6-methoxy-1H-indazol-5-yl)amino]-7H-pyrrolo[2,3-d]pyrimidin-6-yl}methanone] had an IC50 of 2 nM.

With `CCOC(=O)c1cc2c(Nc3cc4cn[nH]c4cc3OC)ncnc2[nH]1` [Example 42, Ethyl 4-[(6-methoxy-1H-indazol-5-yl)amino]-7H-pyrrolo[2,3-d]pyrimidine-6-carboxylate], the IC50 is 3 nM.

In turn, `COc1cc2[nH]ncc2cc1Nc1ncnc2[nH]c(C#CCO)cc12` [Example 22, 3-{4-[(6-Methoxy-1H-indazol-5-yl)amino]-7H-pyrrolo[2,3-d]pyrimidin-6-yl}prop-2-yn-1-ol] had an IC50 of 11 nM.

`CC(C)Oc1cc2[nH]ncc2cc1Nc1ncnc2[nH]cc(C#N)c12` [Example 34, 4-[(6-Isopropoxy-1H-indazol-5-yl)amino]-7H-pyrrolo[2,3-d]pyrimidine-5-carbonitrile] registered an IC50 of 2 nM.

In turn, `COc1cc2[nH]ncc2cc1Nc1ncnc2[nH]cc(C(=O)N3CCN(C)CC3)c12` [Example 5, {4-[(6-methoxy-1H-indazol-5-yl)amino]-7H-pyrrolo[2,3-d]pyrimidin-5-yl}(4-methylpiperazin-1-yl)methanone] had an IC50 of 110 nM. Compared with the last compound, the IC50 is about 55-fold higher.

For `COc1cc2[nH]ncc2cc1Nc1ncnc2[nH]c(S(=O)(=O)c3ccc(C)cc3)cc12` [Example 51, N-(6-Methoxy-1H-indazol-5-yl)-6-[(4-methylphenyl)sulfonyl]-7H-pyrrolo[2,3-d]pyrimidin-4-amine], the IC50 was 1 nM.

With `CCCc1[nH]c2ncnc(Nc3cc4cn[nH]c4cc3OC(C)C)c2c1CC` [Example 45, 5-Ethyl-N-[6-(propan-2-yloxy)-1H-indazol-5-yl]-6-propyl-7H-pyrrolo[2,3-d]pyrimidin-4-amine], the IC50 was 21 nM. Against the preceding compound, the IC50 is about 21-fold higher.

In turn, `Cc1cc2[nH]ncc2cc1Nc1ncnc2[nH]cc(C(=O)N(C)C)c12` [Example 12, N,N-Dimethyl-4-[(6-methyl-1H-indazol-5-yl)amino]-7H-pyrrolo[2,3-d]pyrimidine-5-carboxamide] came in with an IC50 of 211 nM.

`CC(C)Oc1cc2[nH]ncc2cc1Nc1ncnc2[nH]c(C#CCO)cc12` [Example 32, 3-(4-{[6-(Propan-2-yloxy)-1H-indazol-5-yl]amino}-7H-pyrrolo[2,3-d]pyrimidin-6-yl)prop-2-yn-1-ol] showed an IC50 of 14 nM.

As to `COc1cc2[nH]ncc2cc1Nc1ncnc2[nH]cc(C#N)c12` [Example 35, 4-[(6-Methoxy-1H-indazol-5-yl)amino]-7H-pyrrolo[2,3-d]pyrimidine-5-carbonitrile], the IC50 is 1 nM.

For `Cc1cc2[nH]ncc2cc1Nc1ncnc2[nH]cc(C(=O)N3CCN(C)CC3)c12` [Example 13, {4-[(6-Methyl-1H-indazol-5-yl)amino]-7H-pyrrolo[2,3-d]pyrimidin-5-yl}(4-methylpiperazin-1-yl)methanone], it took 194 nM to reach half-maximal inhibition (IC50).

`COc1cc2[nH]ncc2cc1Nc1ncnc2[nH]cc(C(=O)O)c12` [Example 4, 4-[(6-methoxy-1H-indazol-5-yl)amino]-7H-pyrrolo[2,3-d]pyrimidine-5-carboxylic acid] displayed an IC50 of 72 nM. Compared with the last compound, the IC50 is about 2.7-fold lower.

In turn, `Cc1c[nH]c2ncnc(Nc3cc4cn[nH]c4cc3OC(C)C)c12` [Example 38, 5-Methyl-N-[6-(propan-2-yloxy)-1H-indazol-5-yl]-7H-pyrrolo[2,3-d]pyrimidin-4-amine] had a 50% inhibitory concentration (IC50) of 1 nM.

As for `COc1cc2[nH]ncc2cc1Nc1ncnc2[nH]cc(F)c12` [Example 3, 5-fluoro-N-(6-methoxy-1H-indazol-5-yl)-7H-pyrrolo[2,3-d]pyrimidin-4-amine], the midpoint of inhibition, the IC50, lay at 5 nM.

The compound `O=C(O)c1c[nH]c2ncnc(Nc3cc4cn[nH]c4cc3F)c12` [Example 10, 4-[(6-Fluoro-1H-indazol-5-yl)amino]-7H-pyrrolo[2,3-d]pyrimidine-5-carboxylic acid] returned an IC50 of 14 nM.

`COc1cc2[nH]ncc2cc1Nc1ncnc2[nH]c(C(=O)N3CCOC[C@H]3C)c(Br)c12` [Example 67, {5-Bromo-4-[(6-methoxy-1H-indazol-5-yl)amino]-7H-pyrrolo[2,3-d]pyrimidin-6-yl}[(3R)-3-methylmorpholin-4-yl]methanone] showed an IC50 of 3 nM.

Turning to `CC(C)Oc1cc2[nH]ncc2cc1Nc1ncnc2[nH]cc(C(=O)N(C)C)c12` [Example 30, N,N-Dimethyl-4-{[6-(propan-2-yloxy)-1H-indazol-5-yl]amino}-7H-pyrrolo[2,3-d]pyrimidine-5-carboxamide], the IC50 came to 141 nM. This IC50 lies about 47-fold higher than the previous one.

For the compound `FC(F)(F)c1n[nH]c2ccc(Nc3ncnc4[nH]ccc34)cc12` [Example 7, N-[3-(trifluoromethyl)-1H-indazol-5-yl]-7H-pyrrolo[2,3-d]pyrimidin-4-amine], inhibition was half-maximal at 179 nM (IC50). This IC50 and that of the compound before are within 1.5-fold of each other.

`CC(C)NC(=O)c1c[nH]c2ncnc(Nc3cc4cn[nH]c4cc3OC(C)C)c12` [Example 31, N-(Propan-2-yl)-4-{[6-(propan-2-yloxy)-1H-indazol-5-yl]amino}-7H-pyrrolo[2,3-d]pyrimidine-5-carboxamide] returned a concentration for half-maximal inhibition (IC50) of 94 nM.

In turn, `COc1cc2[nH]ncc2cc1Nc1ncnc2[nH]c(Br)cc12` [Example 20, 6-Bromo-N-(6-methoxy-1H-indazol-5-yl)-7H-pyrrolo[2,3-d]pyrimidin-4-amine] came in with an IC50 of 13 nM.

With `CC(C)Oc1cc2[nH]ncc2cc1Nc1ncnc2[nH]c(S(=O)(=O)c3ccccc3)cc12` [Example 52, 6-(Phenylsulfonyl)-N-[6-(propan-2-yloxy)-1H-indazol-5-yl]-7H-pyrrolo[2,3-d]pyrimidin-4-amine], it took 2 nM to reach half-maximal inhibition (IC50).

In the case of `CC(C)Oc1cc2[nH]ncc2cc1Nc1ncnc2[nH]cc(C(=O)O)c12` [Example 28, 4-{[6-(Propan-2-yloxy)-1H-indazol-5-yl]amino}-7H-pyrrolo[2,3-d]pyrimidine-5-carboxylic acid], it took 184 nM to reach half-maximal inhibition (IC50).

`COc1cc2[nH]ncc2cc1Nc1ncnc2[nH]c(C(=O)N3CCCC3)c(Br)c12` [Example 61, {5-Bromo-4-[(6-methoxy-1H-indazol-5-yl)amino]-7H-pyrrolo[2,3-d]pyrimidin-6-yl}(pyrrolidin-1-yl)methanone] displayed an IC50 of 1 nM.

The compound `COc1cc2[nH]ncc2cc1Nc1ncnc2[nH]c(Cl)cc12` [Example 41, 6-Chloro-N-(6-methoxy-1H-indazol-5-yl)-7H-pyrrolo[2,3-d]pyrimidin-4-amine] had a half-maximal inhibitory concentration (IC50) of 21 nM.

In turn, `Fc1cc2[nH]ncc2cc1Nc1ncnc2[nH]c(Br)cc12` [Example 55, 6-Bromo-N-(6-fluoro-1H-indazol-5-yl)-7H-pyrrolo[2,3-d]pyrimidin-4-amine] gave an IC50 of 98 nM. This IC50 lies about 4.7-fold higher than the previous one.

For the compound `CC(C)Oc1cc2[nH]ncc2cc1Nc1ncnc2[nH]c(Br)cc12` [Example 36, 6-Bromo-N-[6-(propan-2-yloxy)-1H-indazol-5-yl]-7H-pyrrolo[2,3-d]pyrimidin-4-amine], the half-maximal inhibitory concentration (IC50) came to 34 nM.

Take `COc1cc2[nH]ncc2cc1Nc1ncnc2[nH]c(C(=O)N3CCCCC3)c(Br)c12` [Example 60, {5-Bromo-4-[(6-methoxy-1H-indazol-5-yl)amino]-7H-pyrrolo[2,3-d]pyrimidin-6-yl}(piperidin-1-yl)methanone]: the IC50 is 2 nM.

With `COc1cc2[nH]ncc2cc1Nc1ncnc2[nH]cc(C(=O)NC(C)C)c12` [Example 6, N-isopropyl-4-[(6-methoxy-1H-indazol-5-yl)amino]-7H-pyrrolo[2,3-d]pyrimidine-5-carboxamide], the IC50 came to 16 nM.

With `CCCc1[nH]c2ncnc(Nc3cc4cn[nH]c4cc3OC)c2c1CC` [Example 46, 5-Ethyl-N-(6-methoxy-1H-indazol-5-yl)-6-propyl-7H-pyrrolo[2,3-d]pyrimidin-4-amine], the IC50 was determined as 2 nM.

In the case of `CC(C)Oc1cc2[nH]ncc2cc1Nc1ncnc2[nH]c(S(C)(=O)=O)cc12` [Example 54, 6-(Methylsulfonyl)-N-[6-(propan-2-yloxy)-1H-indazol-5-yl]-7H-pyrrolo[2,3-d]pyrimidin-4-amine], the concentration for half-maximal inhibition (IC50) is 37 nM.
